Data on two compounds can be found in US20010041676A1, “Glycosides and orthoester glycosides of glucocorticoids and uses thereof” (priority 2000, published 2001).

Like-named read-outs stand apart in the source and are kept apart here.

A short description of one series: in vivo. The conditions noted are these: rat, serum, 20 mg.
For series [1] the following is noted: rat serum; for Serum prednisolone-glycoside: prednisolone-glucoside group (29 mg); for Serum Prednisolone: prednisolone-glucoside group (29 mg, 20 mg equivalent).
Experimental: (§1) 1 ml of rat serum was introduced into Varian-abselut (3 ml) cartridge (Part number SP12103100; analytical sample preparation and solid phase extraction use cartridge). Suction was applied and the cartridge was washed with 3 ml of water followed by 2 ml of water. The cartridges were dried under suction for 5 minutes and a jet stream of argon was blown to dry the trace amounts of water. The cartridge was washed once with 3 ml of hexane and the steroidal portion was eluted with 5 ml of methanol. The methanol portion was dried under nitrogen. The dried extract, which contains prednisolone or the glucoside, was constituted with 300 μl of ethyl acetate-methanol mixture (290 μl of ethyl acetate and 10 μl of methanol). 100 μl injections were made using manual injections in the HPLC instrument.
(§2) Hewlett Packard-Agilent 1100 series instrument with UV detector G1315A and a manual injector with a 100 μL loop were used in the assay.
(§3) The solvents used in the elution were a mixture of methanol (2 parts), ethyl acetate (42 parts) and hexane (56 parts). The mixture was run at a flow rate of 1 ml per minute.
(§4) The serum prednisolone and prednisolone glucoside levels were assessed from the animals dosed with either 20 mg of prednisolone or 29 mg of prednisolone glucoside (20 mg equivalent). The animals were sacrificed after 30 minutes and 60 minutes.
(§5) The serum prednisolone levels were calculated based upon the HPLC analyses of prednisolone and prednisolone glucoside. These values are calculated based upon the mAU and area values calculated against the standards.
For series [2] the following is noted: pH 1.0, 20 mg/ml, room temperature, up to 72 hours.
Experimental: The acid stability of prednisolone glucoside was qualitatively assessed by thin layer chromatography (TLC).
Prednisolone glucoside was suspended in pH 1.0 (freshly prepared from 10 M HCl solution) at a concentration of 20 mg/ml and stirred as a turbid solution at room temperature for 72 hours. At 24 and 48 hours, 100 μl aliquots were removed and diluted with about 200 μl of methanol to make a homogeneous solution. Approximately 50 μl was applied to a TLC plate (Sigma-Aldrich #Z 29298-2, made by Merck—silica TLC plates) with several repeated small applications. As controls, standard applications of 10 μg of fresh prednisolone glucoside, dissolved in 100 μl of methanol, and about 10 μg of prednisolone, in 50 μl of methanol, were applied at separate spots. Several repeated small applications were used to minimize the size of applied spot.
The TLC plates were initially eluted with ethyl acetate and then illuminated with the Aldrich's hand held model UV source (short UV light source used, Spectroline #1281657). The TLC plates were then dried, reeluted with methanol and then illuminated again with the UV source.

Experimental for in vivo: as §1, §2, §3, §4, §5

Turning to `C[C@]12C=CC(=O)C=C1CC[C@@H]1[C@@H]2[C@@H](O)C[C@@]2(C)[C@H]1CC[C@]2(O)C(=O)CO` [Prednisolone, prednisolone], in “in vivo”, the concentration at 30 min amounted to 350 ng/mL and the concentration at 60 min is 156 ng/mL.
For `C[C@]12C=CC(=O)C=C1CC[C@@H]1[C@@H]2[C@@H](O)C[C@@]2(C)[C@H]1CC[C@]2(O)C(=O)CO[C@@H]1O[C@H](CO)[C@@H](O)[C@H](O)[C@H]1O` [Prednisolone-glucoside, 1,4-pregnadiene-11β-17α-diol-21-O-1′-β′-glucopyranosyl-3,20-dione], in series [1] (30 mins), the Serum prednisolone-glycoside is 639 ng/mL and the “Serum Prednisolone” value was 861 ng/mL. For the same compound, in series [1] (60 mins), the Serum prednisolone-glycoside was found to be 0 ng/mL and the “Serum Prednisolone” value is 349.5 ng/mL. In addition, the “Acid stability (qualitative, TLC)” value in series [2] was “stable”.
